The values that follow come from US7884234B2, “N-phenyloxamide derivatives” (Institute of Medicinal Molecular Design, inc., priority 2006, dated 2011).

Holding throughout (assay type): biochemical
In assay [1] the target is T1, recombinant human PAI-1 (Homo sapiens, UniProt P05121).
T1 construct: purchased Molecular Innovations, Inc
Nature of the assay: Test Example 1: human PAI-1 inhibitory activity (tPA fluorogenic substrate assay, pH7.5 Tris buffer). The settings on record: for inhibition at 5 µM: pH 7.5, compound 5 μM; for inhibition at 5 µM / inhibition at 10 µM / inhibition at 25 µM: read-out: Inhibition Rate of Human PAI-1 Activity (%); for inhibition at 10 µM: pH 7.5, compound 10 μM; for inhibition at 25 µM: pH 7.5, compound 25 μM. An excerpt: <Composition of pH7.5 Tris Buffer)
0.01% Tween80 (SIGMA-ALDRICH Corporation)

The target of assay [2] is T1, recombinant human PAI-1. Nature of the assay: Test Example 4: human PAI-1 inhibitory activity (amount of PAI-1 bound to plate-coated tPA, ELISA). The settings on record: PAI-1 50 ng/ml bound to coated tPA, read-out: Inhibition Rate of Human PAI-1 Activity (%); for inhibition at 0.1 µM: compound 0.1 μM; for inhibition at 0.3 µM: compound 0.3 μM. The method, then: 100 μl of tPA solution where one-chain recombinant tPA (hereinafter refereed to as tPA; American diagnostica, inc.) diluted with Buffer A to achieve a concentration of 10 μg/ml was added to each well of 96-well plate (Nunc Maxisorp), incubated for one night at […] to coated with tPA. Then, after suction of tPA solution from the 96-well plate, rinsed successively with Buffer A and Buffer B.
To Buffer B, solutions of the present application compound dissolved with DMSO (final DMSO concentration: 0.2%) and recombinant human PAI-1 (Molecular Innovations, Inc.) were added and blended so that the final concentrations would be 0.1 to 3.0 μM and 50 ng/ml respectively, and were incubated for 15 minutes on ice. These mixed solutions were added to rinsed 96-well plates at 100 μl/well, and incubated for 60 minutes at room temperature. To prepare calibration curve, PAI-1 solutions without the present application compound (solutions where the final concentrations being 100, 50, 25, 12.5, 6.25, 3.13, 1.56 ng/ml PAI-1) were added at 100 μl/well, and were incubated for 60 minutes at room temperature, as standard.
After incubation, the reaction mixture was suction removed, and rinsed each well with Wash Buffer. Next, anti-human PAI-1 monoclonal antibody (PROGEN Inc.) diluted with Buffer C to be 3.0 μg/ml was added to the 96-well plate at 100 μl/well, and incubated for 1 hour at room temperature. After rinsing each well with Wash Buffer, alkaline phosphatase-labeled goat anti-mouse IgG (H+L) (Jackson ImmunoResearch, Inc.) diluted with Buffer D to be 0.12 μg/ml was added at 100 μl/well, and incubated for 1 hour at room temperature. After rinsing each well with Wash Buffer, 1.0 mg/ml p-Nitrophenyl Phosphate (SIGMA) was added to the 96-well plate at 100 μl/well to start the reaction. After 30 to 60 minutes, 25 μl of 0.5 N NaOH was added to stop the reaction, and the absorbance was measured at 405 nm using a multiplate reader (GENios; TECAN G.M.B.H.).
Based on the calibration curve prepared from the standard wells, amounts of PAI-1 bound to tPA in the wells treated with the present application compound were calculated, and the PAI-1 inhibition rates by the present application compounds were obtained by the following equation. [PAI-1 Inhibition Rate (%)]=[1-(amount of PAI-1 bound to tPA on the well treated with the present application compound)/(amount of PAI-1 bound to tPA on the well treated with PAI-1 solution without present application compound (solution with the final concentration of 50 ng/ml PAI-1)]×100 <Composition of Buffer A> 0.1 M Tris-HCl-150 150 mM NaCl pH 7.7 <Composition of Buffer B> 50 mM sodium phosphate 0.1 M NaCl 1 mM EDTA pH 6.6 <Composition of Buffer C> 50 mM sodium phosphate 100 mM NaCl pH 7.4 <Composition of Buffer D> 0.01 M Tris-HCl 0.25 M NaCl pH 8.0 <Composition of Wash Buffer> 0.05% Tween 20 0.1% BSA in Buffer A <Composition of p-Nitrophenyl Phosphate Solution> 1 M Diethanolamine 0.5 mM MgCl2 p-Nitrophenyl phosphate pH 9.8
(In general: An ELISA detects its analyte on a solid surface through an enzyme-linked reagent.)

The next assay has as its target T2, recombinant rat PAI-1 (Rattus norvegicus, UniProt P20961).
T2 construct: purchased Molecular Innovations, Inc
T2 sequence (P20961 24-402): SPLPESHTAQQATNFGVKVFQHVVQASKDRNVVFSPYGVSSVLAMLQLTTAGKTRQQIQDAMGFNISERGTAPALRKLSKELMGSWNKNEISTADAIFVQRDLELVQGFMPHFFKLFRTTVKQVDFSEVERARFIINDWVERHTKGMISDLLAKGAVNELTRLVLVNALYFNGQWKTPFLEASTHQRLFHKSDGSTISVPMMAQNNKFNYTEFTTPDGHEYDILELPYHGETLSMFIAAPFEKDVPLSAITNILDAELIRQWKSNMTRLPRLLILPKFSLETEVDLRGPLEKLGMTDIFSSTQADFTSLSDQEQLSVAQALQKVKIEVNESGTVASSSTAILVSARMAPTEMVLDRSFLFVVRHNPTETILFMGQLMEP
Nature of the assay: Test Example 3: rat PAI-1 inhibitory activity (tPA fluorogenic substrate assay, pH7.4 HEPES buffer). Particulars: for IC50: pH7.4 HEPES buffer, obtained from Table 7 results; for inhibition at 10 µM: pH 7.4, read-out: Inhibition Rate of Rat PAI-1 Activity (%). The method, then:
(§1) Except using the pH7.4 HEPES buffer instead of pH7.5 Tris buffer, and the change of incubation time from 15 minutes to 10 minutes of the mixed solution added by two-chain tPA solution, tests were carried out similarly to the Test Example 1.

In assay [3] the target is T1, recombinant human PAI-1. Nature of the assay: Test Example 2: human PAI-1 inhibitory activity (tPA fluorogenic substrate assay, pH7.4 HEPES buffer). Particulars: for IC50: pH7.4 HEPES buffer, obtained from Table 5 results; for inhibition at 3 µM: pH 7.4, read-out: Inhibition Rate of Human PAI-1 Activity (%). The method, then:
as §1
<Compotion of pH7.4 HEPES Buffer>
0.1% Polyethylene glycol 8,000 (Hampton Research Corporation)
2 mM Dimethyldecylphoshine oxide [Apo-10] (Fluka Corporation)

T1 sequence (P05121 24-402): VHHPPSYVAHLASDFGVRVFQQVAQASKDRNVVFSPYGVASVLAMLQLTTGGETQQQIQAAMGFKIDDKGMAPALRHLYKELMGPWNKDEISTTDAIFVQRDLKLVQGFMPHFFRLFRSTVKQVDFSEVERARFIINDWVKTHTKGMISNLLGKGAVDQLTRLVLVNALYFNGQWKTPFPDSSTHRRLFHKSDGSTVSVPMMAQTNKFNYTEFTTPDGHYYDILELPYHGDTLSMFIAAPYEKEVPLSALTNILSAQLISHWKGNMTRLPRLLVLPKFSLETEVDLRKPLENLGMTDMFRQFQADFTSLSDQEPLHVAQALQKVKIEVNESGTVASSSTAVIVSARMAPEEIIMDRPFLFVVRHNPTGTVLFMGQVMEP

As to `O=C(O)C(=O)N(Cc1ccccc1)c1ccc(-c2ccc(OC(F)(F)F)cc2)cc1` [compound 6, N-benzyl-N-[4′-(trifluoromethoxy)biphenyl-4-yl]oxamic Acid], on recombinant human PAI-1 [1], the inhibition (commonly the drop in the measured response relative to a control, in per cent) at 5 µM worked out at 6% and the inhibition at 10 µM was found to be 12%.
As to `CC(C)(C)c1ccc(CN(C(=O)C(=O)O)c2ccc(-c3ccc(C(F)(F)F)cc3)cc2)cc1` [compound 24, N-[4-(tert-butyl)benzyl]-N-[4′-(trifluoromethyl)phenyl-4-yl]oxamic Acid], the “Inhibition Rate of Human PAI-1 Activity (%)” value stood at 7% at recombinant human PAI-1 [1] (compound 5 μM), 35% at recombinant human PAI-1 [1] (compound 10 μM) and 74% on recombinant human PAI-1 [1] (compound 25 μM).
Take `CCN(CC)c1ccc(N(Cc2ccc(C(C)(C)C)cc2)C(=O)C(=O)O)c(-c2ccc(OC(F)(F)F)cc2)c1` [compound 88, N-[4-(tert-butyl)benzyl]-N-[5-diethylamino-4′-(trifluoromethoxy)biphenyl-2-yl]oxamic Acid]: on recombinant human PAI-1 [2], the inhibition at 0.1 µM is 0% and the inhibition at 0.3 µM amounted to 0%. Besides, the half-maximal inhibitory concentration (IC50) (usually the concentration at which inhibition is half-maximal) at recombinant rat PAI-1 turned out to be 1.89 µM. For the same molecule, on recombinant human PAI-1 [3], the half-maximal inhibitory concentration (IC50) was determined as 1.13 µM.
In the case of `O=C(O)C(=O)N(Cc1ccc(C(F)(F)F)cc1)c1ccc(-c2ccc(OC(F)(F)F)cc2)cc1` [compound 34, N-[4′-(trifluoromethoxy)biphenyl-4-yl]-N-[4-(trifluoromethyl)benzyl]oxamic Acid], at recombinant human PAI-1 [1], the inhibition at 5 µM is 15%, the inhibition at 10 µM stood at 38% and the inhibition at 25 µM is 81%.
Turning to `CC(C)(C)c1ccccc1N(C(=O)C(=O)O)c1ccccc1-c1ccc(OC(F)(F)F)cc1` [compound 37, N-[2-(tert-butyl)phenyl]-N-[4′-(trifluoromethoxy)biphenyl-2-yl]oxamic Acid], at recombinant human PAI-1 [1], the inhibition at 5 µM is 25%, the inhibition at 10 µM was 56% and the inhibition at 25 µM came to 96%.
In the case of `CCCCc1ccc(CN(C(=O)C(=O)O)c2ccc(-c3ccc(C(C)(C)C)cc3)cc2)cc1` [compound 86, N-(4-butylbenzyl)-N-[4′-(tert-butyl)biphenyl-4-yl]oxamic Acid], on recombinant human PAI-1 [2], the inhibition at 0.1 µM amounted to 0% and the inhibition at 0.3 µM was determined as 0%. The 50% inhibitory concentration (IC50) on recombinant rat PAI-1 was determined as 1.39 µM. In addition, on recombinant human PAI-1 [3], the inhibition at 3 µM is over 99% and the IC50 came to 0.73 µM.
In the case of `CCC(CC)Oc1ccc(-c2ccc(OC(F)(F)F)cc2)cc1N(Cc1ccc(C(C)(C)C)cc1)C(=O)C(=O)O` [compound 79, N-[4-(tert-butyl)benzyl]-N-[4-(1-ethylpropoxy)-4′-(trifluoromethoxy)biphenyl-3-yl]oxamic Acid], at recombinant human PAI-1 [2], the inhibition at 0.1 µM turned out to be 8%. Further, on recombinant rat PAI-1, the inhibition at 10 µM was over 99% and the concentration for half-maximal inhibition (IC50) was found to be 1.18 µM. Further, at recombinant human PAI-1 [3], the inhibition at 3 µM is over 99% and the IC50 came out at 0.74 µM.
Turning to `CC(C)(C)c1ccc(CN(C(=O)C(=O)O)c2ccc(Oc3ccc(OC(F)(F)F)cc3)cc2C(F)(F)F)cc1` [compound 54, N-[4-(tert-butyl)benzyl]-N-{4-[4-(trifluoromethoxy)phenoxy]-2-(trifluoromethyl)phenyl}oxamic Acid], at recombinant human PAI-1 [2], the inhibition at 0.1 µM was 0% and the inhibition at 0.3 µM amounted to 0%. In addition, the 50% inhibitory concentration (IC50) at recombinant rat PAI-1 amounted to 2.04 µM. Besides, the IC50 on recombinant human PAI-1 [3] is 1.32 µM.
Take `Cc1ccc(N(Cc2ccc(C(C)(C)C)cc2)C(=O)C(=O)O)cc1-c1ccc(OC(F)(F)F)cc1` [compound 56, N-[4-(tert-butyl)benzyl]-N-[2-methyl-4′-(trifluoromethoxy)biphenyl-5-yl]oxamic Acid]: the inhibition at 0.1 µM at recombinant human PAI-1 [2] came to 4%. In addition, on recombinant rat PAI-1, the inhibition at 10 µM was over 99%. Also, the IC50 stood at 1.87 µM on recombinant rat PAI-1 and 1.4 µM at recombinant human PAI-1 [3].
